Biological target: c-kit kinase (Homo sapiens (Human), UniProt P10721)
Assay: c-Kit biochemical assay (AlphaScreen)
Conditions: c-kit biochemical inhibitory activity
Method: Assays for biochemical cell-based activity of c-kit kinase are known in the art, for example, as described in U.S. Pat. Nos. 7,498,342 and 7,846,941, the disclosures of which are hereby incorporated by reference as it relates to such assays. The c-kit (or kinase domain thereof) is an active kinase in AlphaScreen. IC50 values are determined with respect to inhibition of c-Kit kinase activity, where inhibition of phosphorylation of a peptide substrate is measured as a function of compound concentration. Compounds to be tested were dissolved in DMSO to a concentration of 20 mM. These were diluted 30 μl into 120 μl of DMSO (4 mM) and 1 μl was added to an assay plate. These were then serially diluted 1:3 (50 μl to 100 μl DMSO) for a total of 8 points. Plates were prepared such that each kinase reaction is 20 μl in 1× kinase buffer (50 mM HEPES, pH 7.2, 5 mM MgCl2, 5 mM MnCl2, 0.01% NP-40, 0.2% BSA), 5% DMSO and 10 µM ATP. Substrate was 100 nM biotin-(E4Y)3 (Open Source Biotech, Inc.). C-kit kinase was at 0.1 ng per sample. After incubation of the kinase reaction for 1 hour at room temperature, 5 μl of donor beads (Streptavidin coated beads (Perkin Elmer Life Science) final concentration 1 μg/ml) in stop buffer (50 mM EDTA in 1× kinase buffer) was added, the sample was mixed and incubated for 20 minutes at room temperature before adding 5 μl of acceptor beads (PY20 coated beads (Perkin Elmer Life Science) final concentration 1 μg/ml) in stop buffer. The samples were incubated for 60 minutes at room temperature and the signal per well was read on AlphaQuest reader. Phosphorylated substrate results in binding of the PY20 antibody and association of the donor and acceptor beads such that signal correlates with kinase activity. The signal vs. compound concentration was used to determine the IC50.
Compounds were also tested using a similar assay with a 10-fold higher ATP concentration. For these samples, compounds to be tested were dissolved in DMSO to a concentration of 20 mM. These were diluted 30 μl into 120 μl of DMSO (4 mM) and 1 μl was added to an assay plate. These were then serially diluted 1:3 (50 μl to 100 μl DMSO) for a total of 8 points. Plates were prepared such that each kinase reaction is 20 μl in 1× kinase buffer (25 mM HEPES, pH 7.5, 2 mM MgCl2, 2 mM MnCl2, 0.01% Tween-20, 1 mM DTT, and 0.001% BSA), 5% DMSO and 100 µM ATP. Substrate was 30 nM biotin-(E4Y)10 (Upstate Biotech, Cat#12-440). C-kit kinase was at 1 ng per sample. After incubation of the kinase reaction for 1 hour at room temperature, 5 μl of donor beads (Streptavidin coated beads (Perkin Elmer Life Science) final concentration 10 μg/ml) in stop buffer (25 mM HEPES pH 7.5, 100 mM EDTA, 0.3% BSA) was added, the sample was mixed and incubated for 20 minutes at room temperature before adding 5 μl of acceptor beads (PY20 coated beads (Perkin Elmer Life Science) final concentration 10 μg/ml) in stop buffer. The samples were incubated for 60 minutes at room temperature and the signal per well was read on AlphaQuest or Envision reader (Perkin Elmer Life Science). Phosphorylated substrate results in binding of the PY20 antibody and association of the donor and acceptor beads such that signal correlates with kinase activity. The signal vs. compound concentration was used to determine the IC50.
The c-kit enzyme used in the above assay was either obtained from Cell Signaling Technology (Cat. #7754) or was prepared as follows: A plasmid encoding kit (DNA and encoded protein sequences shown below) was engineered using common polymerase chain reaction (PCR) methods. Complementary DNA cloned from various human tissues were purchased from Invitrogen, and these were used as substrates in the PCR reactions. Specific custom synthetic oligonucleotide primers were designed to initiate the PCR product, and also to provide the appropriate restriction enzyme cleavage sites for ligation with the plasmids. […]

Chain of c-kit kinase (P10721 26-976): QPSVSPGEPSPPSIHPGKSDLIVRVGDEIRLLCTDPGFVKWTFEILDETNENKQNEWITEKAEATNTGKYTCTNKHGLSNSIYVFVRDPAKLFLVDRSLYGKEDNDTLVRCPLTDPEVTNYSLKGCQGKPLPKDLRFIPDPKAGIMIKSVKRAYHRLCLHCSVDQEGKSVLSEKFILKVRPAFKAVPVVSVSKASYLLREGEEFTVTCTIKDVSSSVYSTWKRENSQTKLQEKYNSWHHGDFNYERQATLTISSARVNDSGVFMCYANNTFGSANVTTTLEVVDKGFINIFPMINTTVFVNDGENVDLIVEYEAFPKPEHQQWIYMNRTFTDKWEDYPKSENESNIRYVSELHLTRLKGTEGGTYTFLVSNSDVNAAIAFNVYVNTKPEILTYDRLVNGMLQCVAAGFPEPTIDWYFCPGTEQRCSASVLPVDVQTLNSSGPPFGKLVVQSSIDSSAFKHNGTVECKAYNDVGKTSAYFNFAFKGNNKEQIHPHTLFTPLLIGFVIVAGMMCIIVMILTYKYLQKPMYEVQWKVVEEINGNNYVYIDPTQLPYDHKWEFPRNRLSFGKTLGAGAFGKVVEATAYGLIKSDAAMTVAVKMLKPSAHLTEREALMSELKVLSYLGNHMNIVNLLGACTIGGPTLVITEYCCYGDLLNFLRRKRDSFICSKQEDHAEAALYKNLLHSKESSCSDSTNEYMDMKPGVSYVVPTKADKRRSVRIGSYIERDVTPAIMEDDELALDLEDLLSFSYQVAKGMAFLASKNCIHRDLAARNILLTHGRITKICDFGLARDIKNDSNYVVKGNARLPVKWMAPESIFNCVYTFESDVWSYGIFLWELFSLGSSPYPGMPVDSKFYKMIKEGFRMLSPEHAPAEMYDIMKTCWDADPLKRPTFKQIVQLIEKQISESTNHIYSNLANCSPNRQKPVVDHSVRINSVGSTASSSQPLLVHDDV

First: O=C(Nc1cnc2[nH]c(-c3ccccc3)cc2c1)c1ncccc1F [P-2012, 3-fluoro-N-(2-phenyl-1H-pyrrolo[2,3-b]pyridin-5-yl)pyridine-2-carboxamide]
Second: Cc1cccnc1C(=O)Nc1cnc2[nH]c(-c3ccccc3)cc2c1 [P-2016, 3-methyl-N-(2-phenyl-1H-pyrrolo[2,3-b]pyridin-5-yl)pyridine-2-carboxamide]
The IC50 of the first is lower: 0.0001 to 1 µM for the first, 1 to 10 µM for the second.

Compared with `Cc1noc(C)c1C(=O)Nc1cnc2[nH]c(-c3ccccc3)cc2c1` [P-2013, 3,5-dimethyl-N-(2-phenyl-1H-pyrrolo[2,3-b]pyridin-5-yl)isoxazole-4-carboxamide], `O=C(Nc1cnc2[nH]c(-c3ccccc3)cc2c1)c1cn[nH]n1` [P-2015, N-(2-phenyl-1H-pyrrolo[2,3-b]pyridin-5-yl)-2H-triazole-4-carboxamide] is higher in IC50: 0.0001 to 1 µM for the first, 1 to 10 µM for the second. The first is the more potent here.

Compared with `Cc1cc(C(=O)Nc2cnc3[nH]c(-c4ccc(F)cc4)cc3c2)[nH]n1` [P-2019, N-[2-(4-fluorophenyl)-1H-pyrrolo[2,3-b]pyridin-5-yl]-3-methyl-1H-pyrazole-5-carboxamide], `Cc1c[nH]nc1C(=O)Nc1cnc2[nH]c(-c3ccc(F)cc3)cc2c1` [P-2029, N-[2-(4-fluorophenyl)-1H-pyrrolo[2,3-b]pyridin-5-yl]-4-methyl-1H-pyrazole-3-carboxamide] is lower in IC50: 10 to 200 µM for the first, 0.0001 to 1 µM for the second. The second is the more potent here.

Compared with `Cc1n[nH]c(C(=O)Nc2cnc3[nH]c(-c4ccc(F)cc4)cc3c2)c1Cl` [P-2023, 4-chloro-N-[2-(4-fluorophenyl)-1H-pyrrolo[2,3-b]pyridin-5-yl]-3-methyl-1H-pyrazole-5-carboxamide], `Cc1n[nH]c(C(=O)Nc2cnc3[nH]c(-c4ccc(F)cc4)cc3c2)c1C` [P-2024, N-[2-(4-fluorophenyl)-1H-pyrrolo[2,3-b]pyridin-5-yl]-3,4-dimethyl-1H-pyrazole-5-carboxamide] is higher in IC50: 1 to 10 µM for the first, 10 to 200 µM for the second. The first is the more potent here.

`CC(=O)Nc1cccc(C(=O)Nc2cnc3[nH]c(-c4ccc(F)cc4)cc3c2)c1` [P-2026, 3-acetamido-N-[2-(4-fluorophenyl)-1H-pyrrolo[2,3-b]pyridin-5-yl]benzamide] and `O=C(Nc1cnc2[nH]c(-c3ccc(F)cc3)cc2c1)c1cccc2n[nH]cc12` [P-2027, N-[2-(4-fluorophenyl)-1H-pyrrolo[2,3-b]pyridin-5-yl]-2H-indazole-4-carboxamide] fall in the same range of IC50: 0.0001 to 1 µM for the first, 0.0001 to 1 µM for the second.

`CCn1nccc1S(=O)(=O)Nc1cnc2[nH]c(-c3ccc(F)cc3)cc2c1` [P-2030, 2-ethyl-N-[2-(4-fluorophenyl)-1H-pyrrolo[2,3-b]pyridin-5-yl]pyrazole-3-sulfonamide] and `Cc1n[nH]nc1C(=O)Nc1cnc2[nH]c(-c3ccc(F)cc3)cc2c1` [P-2037, N-[2-(4-fluorophenyl)-1H-pyrrolo[2,3-b]pyridin-5-yl]-5-methyl-2H-triazole-4-carboxamide] fall in the same range of IC50: 1 to 10 µM for the first, 1 to 10 µM for the second.

`Cc1cc(C(=O)Nc2cnc3[nH]c(C4=CCN(C(=O)N5CCOCC5)CC4)cc3c2)n[nH]1` [P-2031, 5-methyl-N-[2-[1-(morpholine-4-carbonyl)-3,6-dihydro-2H-pyridin-4-yl]-1H-pyrrolo[2,3-b]pyridin-5-yl]-1H-pyrazole-3-carboxamide] and `Cc1n[nH]c(C(=O)Nc2cnc3[nH]c(C4=CCN(C(=O)N5CCOCC5)CC4)cc3c2)c1C` [P-2034, 3,4-dimethyl-N-[2-[1-(morpholine-4-carbonyl)-3,6-dihydro-2H-pyridin-4-yl]-1H-pyrrolo[2,3-b]pyridin-5-yl]-1H-pyrazole-5-carboxamide] fall in the same range of IC50: 0.0001 to 1 µM for the first, 0.0001 to 1 µM for the second.

`Cc1n[nH]c(C(=O)Nc2cnc3[nH]ccc3c2)c1C` [P-2032, 3,4-dimethyl-N-(1H-pyrrolo[2,3-b]pyridin-5-yl)-1H-pyrazole-5-carboxamide] and `Cc1n[nH]c(C(=O)Nc2cnc3[nH]c(Cl)cc3c2)c1C` [P-2049, N-(2-chloro-1H-pyrrolo[2,3-b]pyridin-5-yl)-3,4-dimethyl-1H-pyrazole-5-carboxamide] fall in the same range of IC50: 10 to 200 µM for the first, 10 to 200 µM for the second.

Compared with `Cc1n[nH]c(C(=O)Nc2cnc3c(c2)cc(C2=CCN(C(=O)N4CCOCC4)CC2)n3S(=O)(=O)c2ccccc2)c1C` [P-2033, N-[1-(benzenesulfonyl)-2-[1-(morpholine-4-carbonyl)-3,6-dihydro-2H-pyridin-4-yl]pyrrolo[2,3-b]pyridin-5-yl]-3,4-dimethyl-1H-pyrazole-5-carboxamide], `Cc1n[nH]c(C(=O)Nc2cnc3[nH]c(C4=CCN(C(=O)N5CCOCC5)CC4)cc3c2)c1Cl` [P-2036, 4-chloro-3-methyl-N-[2-[1-(morpholine-4-carbonyl)-3,6-dihydro-2H-pyridin-4-yl]-1H-pyrrolo[2,3-b]pyridin-5-yl]-1H-pyrazole-5-carboxamide] is lower in IC50: 10 to 200 µM for the first, 0.0001 to 1 µM for the second. The second is the more potent here.

Compared with `Cc1nn(C)cc1-c1cc2cc(NC(=O)c3[nH]nc(C)c3C)cnc2[nH]1` [P-2038, N-[2-(1,3-dimethylpyrazol-4-yl)-1H-pyrrolo[2,3-b]pyridin-5-yl]-4,5-dimethyl-1H-pyrazole-3-carboxamide], `Cc1n[nH]c(C(=O)Nc2cnc3[nH]nc(C)c3c2)c1C` [P-2040, 3,4-dimethyl-N-(3-methyl-1H-pyrazolo[3,4-b]pyridin-5-yl)-1H-pyrazole-5-carboxamide] is higher in IC50: 0.0001 to 1 µM for the first, 10 to 200 µM for the second.

`Cc1[nH]nc(C(=O)Nc2cnc3[nH]c(C4=CCN(C(=O)C5CC5)CC4)cc3c2)c1Cl` [P-2039, 4-chloro-N-[2-[1-(cyclopropanecarbonyl)-3,6-dihydro-2H-pyridin-4-yl]-1H-pyrrolo[2,3-b]pyridin-5-yl]-5-methyl-1H-pyrazole-3-carboxamide] and `Cc1[nH]nc(C(=O)Nc2cnc3[nH]c(C4=CCN(C(=O)C5CC5)CC4)cc3c2)c1C` [P-2043, N-[2-[1-(cyclopropanecarbonyl)-3,6-dihydro-2H-pyridin-4-yl]-1H-pyrrolo[2,3-b]pyridin-5-yl]-4,5-dimethyl-1H-pyrazole-3-carboxamide] fall in the same range of IC50: 0.0001 to 1 µM for the first, 0.0001 to 1 µM for the second.

`Cc1cc(C(=O)Nc2cnc3[nH]c(C4=CCN(C(=O)C5CC5)CC4)cc3c2)n[nH]1` [P-2042, N-[2-[1-(cyclopropanecarbonyl)-3,6-dihydro-2H-pyridin-4-yl]-1H-pyrrolo[2,3-b]pyridin-5-yl]-5-methyl-1H-pyrazole-3-carboxamide] and `Cc1n[nH]c(C(=O)Nc2cnc3[nH]c(-c4cnn(C5CCNCC5)c4)cc3c2)c1C` [P-2048, 3,4-dimethyl-N-[2-[1-(4-piperidyl)pyrazol-4-yl]-1H-pyrrolo[2,3-b]pyridin-5-yl]-1H-pyrazole-5-carboxamide] fall in the same range of IC50: 0.0001 to 1 µM for the first, 0.0001 to 1 µM for the second.

`Cc1n[nH]c(C(=O)Nc2cnc(Nc3ccccc3)nc2)c1C` [P-2044, N-(2-anilinopyrimidin-5-yl)-3,4-dimethyl-1H-pyrazole-5-carboxamide] and `Cc1n[nH]c(C(=O)Nc2ccc(Nc3ccccc3)nc2)c1C` [P-2045, N-(6-anilino-3-pyridyl)-3,4-dimethyl-1H-pyrazole-5-carboxamide] fall in the same range of IC50: 10 to 200 µM for the first, 10 to 200 µM for the second.

`O=C(Nc1cnc2[nH]c(-c3ccc(F)cc3)cc2c1)c1n[nH]c2ccccc12` [P-2046, N-[2-(4-fluorophenyl)-1H-pyrrolo[2,3-b]pyridin-5-yl]-1H-indazole-3-carboxamide] and `O=C(Nc1cnc2[nH]c(-c3ccc(F)cc3)cc2c1)c1n[nH]c2c1CCCC2` [P-2047, N-[2-(4-fluorophenyl)-1H-pyrrolo[2,3-b]pyridin-5-yl]-4,5,6,7-tetrahydro-1H-indazole-3-carboxamide] fall in the same range of IC50: 10 to 200 µM for the first, 10 to 200 µM for the second.

In the case of `CCNS(=O)(=O)c1cccc(Nc2ncc(NC(=O)c3[nH]nc(C)c3C)cn2)c1` [P-2050, N-[2-[3-(ethylsulfamoyl)anilino]pyrimidin-5-yl]-3,4-dimethyl-1H-pyrazole-5-carboxamide], the IC50 is reported as 10 to 200 µM.

— patent US10301280B2 (Plexxikon Inc., priority 2012, dated 2019)
